This is an account of results in patent US20120076762A1, “INDUCED PLURIPOTENT STEM CELL GENERATION USING TWO FACTORS AND P53 INACTIVATION” (THE SALK INSTITUTE FOR BIOLOGICAL STUDIES, priority 2009, published 2012).

The subject of data set [1] is Arf. The data set is described as follows: Arf level after shRNA in MEFs (Western blot). It is filed as cell-based, mouse. Conditions: lentiviral shRNA, day 4. The source says:
FIG. 2: Modulation of p53 activity alters reprogramming efficiency. (FIG. 2a) Fold change in the number of 3-F induced Nanog-positive colonies by Arf shRNA compared to control shRNA (n=3). Protein levels of Arf, Ink4a and α-Tubulin (loading control) on day 4 after infection are shown. (FIG. 2b) Fold change in the number of 3-F induced Nanog-positive colonies by Arf/Ink4a shRNA compared to control shRNA (n=3). Protein levels of Arf, Ink4a and α-Tubulin (loading control) on day 4 after infection are shown. (FIG. 2c) MEFs isolated from wild type (+/+), Mdmx-3SA heterozygous (3SA/+) and homozygous (3SA/3SA) mice were exposed to 5Gy of gamma-irradiation for 4 hours. p21 mRNA levels were analyzed by QPCR. Results were normalized to untreated WT samples for fold induction. (FIG. 2d) 3-F induced Nanog-positive colonies in wild type (+/+) and homozygous (3SA/3SA) mice (n=3).
Cells were washed once in PBS and lysed in 2×SDS-PAGE sample buffer without 2-mercaptoethanol and glycerol. Lysates were briefly sonicated and cleared by centrifugation. The protein concentration was determined by a BCA Protein Assay Kit (Thermo Scientific). Lysates were then mixed with 2-mercaptoethanol, BPB and glycerol, and boiled. Equal amounts of proteins were subjected to SDS-PAGE. […] Quantitative PCR was performed using SYBR® GREEN PCR Master Mix (Applied Biosystems).

In data set [2] the test system is Mouse embryonic fibroblasts (MEFs). The data set is described as follows: Reprogramming of mouse embryonic fibroblasts to iPS cells (Nanog-positive colonies). It is filed as cell-based. Conditions: for Fold increase in reprogramming / Nanog-positive colony formation vs control / Effect on reprogramming: 3-F; for Fold increase in reprogramming / Nanog-positive colony formation vs control / Reprogramming efficiency (Nanog-positive colonies / infected cells) / Direction and grade of change in reprogramming efficiency (arrows): MEFs. The source says: (§1) VSV-G viruses were produced in HEK293T cells. For pMX-based and pMSCV-based retroviruses, vectors were transfected using CaPO4 or lipofectamin, following the manufacturers' directions. One day after transfection, culture medium was changed to new medium. For lentivirus, pBOBI-based^34 or pLVTHM-based^37 vectors were transfected by Lipofectamine™ 2000 (Invitrogen) according to the manufacturer's protocol. Six hours after transfection, the DNA-lipofectamine-complex was removed and the medium was replaced the next day. Two days after transfection, the supernatant containing viruses was collected and filtered through a 0.45 μm filter. Mouse iPS cells were induced as previously described^38,39. Briefly, mouse embryonic fibroblasts (passage 3 to 5) were infected (day 0) with pMX-based retroviruses together with pLVTHM-based lentivirus for shRNAs or pBOBI-based lentivirus for Bcl-2. On day 2, cells were passed onto new gelatin-coated plates. Medium was changed every 2 days. On day 12 to 14, cells were fixed for immunofluorescence study. For the Nutlin3a experiments, cells were treated starting from day 4. Reprogramming of human embryonic fibroblasts (IMR90) was done as previously described^2′^3. Briefly, IMR90 fibroblasts (passage 7 to 9) were infected (day 0) with pMSCV-based retroviruses+pLVTHM-based lentiviruses for p53 shRNA. On day 4 or 5, cells were passed onto feeder MEFs. Medium was changed every day. Around 3 weeks after infection, cells were fixed for immunofluorescence studies. Reprogramming of human primary keratinocytes was carried out essentially as described^6. Cells were co-infected with retroviral supernatants containing 3 or 4 reprogramming factors and p53-DD or GFP at a 1:2 ratio. To assess the reprogramming efficiency, cells were trypsinized 3 days after retroviral infection and 10^4 cells were plated onto 6-cm tissue culture dishes on top of irradiated human foreskin fibroblasts with hES cell medium.
The number of Nanog-positive colonies was calculated after immunostaining at d12-14. The total number of Nanog-positive colonies was divided by the number of infected cells. Error numbers indicate s.d. The term “s.d.” refers in the customary sense to standard deviation. The term “s.e.” refers in the customary sense to standard error. Student's t-tests were performed for statistical analysis. p=0.007 (p53-shRNA vs mock, n=4 in each), p=0.0006 (p53−/− vs WT, n=3 in each), p=0.009 (p21-shRNA vs mock, n=4 in each), p=0.0005 (Arf-shRNA vs mock, n=3 in each), p=0.028 (Arf/Ink4a-shRNA vs mock, n=3 in each), p=0.010 (Ctl(solvent) vs Nutlin-3(10 μM), n=3 in each), p=0.045 (3SA/3SA vs WT, n=3 in each), p=0.022 (Bcl-2 vs mock, n=4 in each), and p=0.012 (c-Myc versus mock, n=4 in each).

Data set [3] deals with human primary keratinocytes. Description: Reprogramming of human primary keratinocytes (AP-positive hES-like colonies). It is filed as cell-based. The source says:
FIG. 5: Downregulation of p53 activity increases reprogramming efficiency of human somatic cells. (FIG. 5a) Human embryonic fibroblasts were infected with retroviruses encoding Oct4/Sox2/Klf4 (3-F) or Oct4/Sox2/Klf4/c-Myc (4-F) factors in combination with lentiviruses expressing control- or p53-shRNA. Emerging colonies of iPS cells were visualized by immunostaining with anti-Nanog antibody using an ABC method. […] (FIG. 5b) Human primary keratinocytes were co-infected with 4-F and retroviruses expressing GFP or p53-DD. 5×10^4 infected cells were plated on 10-cm dishes and stained for AP activity after 2 weeks. […] Actin was used as a loading control. (FIG. 5c) The bars represent the average number of iPS-like colonies obtained from 10^4 keratinocytes reprogrammed with 3-F or 4-F and retroviruses encoding GFP or p53-DD, in the absence or presence of the p53 agonist Nutlin3a (n=3). iPS-like colonies were scored as having hES-like morphology and positive AP staining. Due to the numerous colonies generated in 4-F p53-DD keratinocytes, quantification was done using 10^4 cells. […]

Data set [4] relates to p21. Description: p21 expression after shRNA in MEFs. The data set is classed as cell-based, mouse. As to conditions: lentiviral shRNA. On the procedure:
FIG. 1: Increased generation of iPS cells by blocking p53 and p21. (FIG. 1a) Mouse embryonic fibroblasts (MEFs) were infected by retroviruses encoding 3 transcription factors (Oct4/Sox2/Klf4), 2 factors (Oct4/Sox2), Klf4, c-Myc or GFP. Four days after infection, the protein levels of p53, Arf, and p21 were analyzed by Western Blotting. α-tubulin was used as a loading control. (FIG. 1b) Mouse embryonic fibroblasts (MEFs) were infected by retroviruses encoding three transcription factors (Oct4/Sox2/Klf4) in combination with mock, control shRNA (GFP) and p53 shRNA (#1 and #2). Emerging colonies of iPS cells were visualized by immunostaining with anti-Nanog antibody using an Avidin Biotin Complex (ABC) method. (FIG. 1c) The fold change in the number of Nanog-positive colonies compared to mock (n=4). For all figures in this study, error bars indicate s.d. (FIG. 1d) Effect of Nutlin 3a on the number of Nanog-positive colonies by 3 factors in combination with mock, p53, and p21 shRNA. Cells were treated by Nutlin 3a (0, 3, 10 μM) starting from day 4. […]
Cells were washed once in PBS and lysed in 2×SDS-PAGE sample buffer without 2-mercaptoethanol and glycerol. […] The protein concentration was determined by a BCA Protein Assay Kit (Thermo Scientific). […] Quantitative PCR was performed using SYBR® GREEN PCR Master Mix (Applied Biosystems).

The test system of data set [5] is human embryonic fibroblasts (HEFs, IMR90). Description: Reprogramming of human embryonic fibroblasts (Nanog- or Tra1-81-positive colonies). It is filed as cell-based.
Description: as §1, with “.” for “VSV-G viruses were produced in HEK293T cells.”
The number of Nanog- or Tral-81-positive colonies was calculated after immunostaining at dl 8-27. No colonies were observed from mock +4-F or 3-F cells in all trials. The total number of colonies was divided by the number of infected cells. Error numbers indicate s.d (n=4).

Where [6] appears, read: 3F (Oct4/Sox2/Klf4), d12-14, error = s.d.

Marks after values point to notes of the source that are not given here.

Consider “Arf shRNA: shRNA sequence CACCGGAATCCTGGACCAG, SEQ ID NO: 5”, for which the “Reduction of Arf levels” value in data set [1] is 2-4 fold. In data set [2], the “Fold increase in reprogramming / Nanog-positive colony formation vs control” value is recorded as “approximately 2 fold”. The “Reprogramming efficiency (Nanog-positive colonies / infected cells)” value in data set [2] (setting [6]) is 0.163 ± 0.013% vs 0.085 + 0.083%. Further, the “Direction and grade of change in reprogramming efficiency (arrows)” value (“Direction and grade of change” for short) in data set [2] (3F, vs control) is “↑”.

Turning to `COc1ccc(C2=N[C@@H](c3ccc(Cl)cc3)[C@@H](c3ccc(Cl)cc3)N2C(=O)N2CCNC(=O)C2)c(OC(C)C)c1` [Nutlin3a], the Effect on reprogramming result in data set [3] (3-F or 4-F p53-DD expressing keratinocytes) is given as “inability of Nutlin3a to reduce reprogramming”; in data set [2] (p53(+/+) MEFs), “dramatically reduced reprogramming”; in data set [2] (p53-null (−/−) MEFs), “did not have any effects”. Besides, the “Effect on reprogramming efficiency” value in data set [3] (human keratinocytes, 3-F or 4-F) was “markedly reduced the reprogramming efficiency”. Also, the “Effect on iPS cell formation” value in data set [2] (3-F MEFs with p53 reduced by most effective shRNA, 0, 3, 10 μM from day 4) is given as “dose-dependent decrease”. For the same compound, the “Direction and grade of change” value in data set [2] (3F, Nutlin-3 10 μM vs solvent) is listed as “↓↓”. Moreover, the “Reprogramming efficiency (Nanog-positive colonies / infected cells)” value in data set [2] (3F, Nutlin-3 10 μM vs solvent, treated from day 4, error = s.d.) is 0.007 + 0.008% vs 0.114 + 0.054%.

Consider “Arf/Ink4a shRNA: shRNA sequence AATGGCTGGATTGTTTAAA, SEQ ID NO: 6”, for which, in data set [2] (setting [6]), the “Reprogramming efficiency (Nanog-positive colonies / infected cells)” value is 0.366 ± 0.144% vs 0.114 + 0.054%. In data set [2] (3F, vs control), the “Direction and grade of change” value was “↑↑”.

Turning to “p21 shRNA: shRNA sequence TTAGGACTCAACCGTAATA, SEQ ID NO: 4”, the “Reduction of p21 expression” value in data set [4] is reported as 3-4 fold. The “Fold increase in reprogramming / Nanog-positive colony formation vs control” value in data set [2] is recorded as “approximately 3 fold”. Besides, the “Reprogramming efficiency (Nanog-positive colonies / infected cells)” value in data set [2] (setting [6]) came out at 0.359 ± 0.144% vs 0.114 + 0.054%. In addition, the “Direction and grade of change” value in data set [2] (3F, vs control) is given as “↑↑↑”.

As to “p53shRNA: lentiviral shRNA against human p53, sequence GACTCCAGTGGTAATCTAC, SEQ ID NO: 7 (lentiviral vector)”, the “Actual number of Nanog-positive colonies” value in data set [5] (3-F, Trial 1) is reported as 10 colonies/3 × 10^4 cells (p53shRNA); in data set [5] (3-F, Trial 2), 2 colonies/1 × 10^4 cells (p53shRNA); in data set [5] (4-F, Trial 1), 86 colonies/2 × 10^4 cells (p53shRNA); in data set [5] (4-F, Trial 2), 13 colonies/2 × 10^4 cells (p53shRNA); in data set [5] (4-F, Trial 3) it was 19 colonies/2 × 10^4 cells (p53shRNA); in data set [5] (4-F, Trial 4) it was 4 colonies/2 × 10^4 cells (p53shRNA). For the same compound, the “Reprogramming efficiency of HEFs” value in data set [5] (3-F, average of 2 independent experiments) was determined as 0.027% *; in data set [5] (4-F, ± s.d. (n=4)), 0.153 ± 0.188%.
